# How the values were obtained:
# Assay type in all cases: functional
# HepG2 = assay: Antiproliferative activity against human HepG2 cells assessed as cell viability after 72 hrs by MTT assay
# A549 = assay: Antiproliferative activity against human A549 cells assessed as cell viability after 72 hrs by MTT assay
# HCT-116 = assay: Antiproliferative activity against human HCT-116 cells assessed as cell viability after 72 hrs by MTT assay
GI50 (HepG2) [µM],GI50 (A549) [µM],GI50 (HCT-116) [µM],SMILES
4,1.1,2.6,COc1cc(Nc2n[nH]c3ccc(C)cc23)cc(OC)c1OC
> 25,> 25,> 25,COc1ccc(Nc2n[nH]c3cc(F)ccc23)cc1
> 25,> 25,23.7,Cc1ccc2c(Nc3ccc4c(c3)OCO4)n[nH]c2c1
24.1,19.4,18.9,COc1cc(Nc2n[nH]c3ccccc23)cc(OC)c1OC
> 25,> 25,16.7,COc1ccc(Nc2n[nH]c3cc(F)ccc23)cc1OC
> 25,> 25,14.6,COc1ccc2c(Nc3ccc(OC)c(OC)c3)n[nH]c2c1

# Further lines, the compound ahead of its results:
SMILES,GI50 (HepG2) [µM],GI50 (A549) [µM],GI50 (HCT-116) [µM]
COc1ccc(Nc2n[nH]c3ccc(C)cc23)cc1OC,> 25,> 25,22.3
COc1ccc2c(Nc3ccc4c(c3)OCO4)n[nH]c2c1,> 25,> 25,> 25
COc1ccc(/C=C\c2cc(OC)c(OC)c(OC)c2)cc1O [COMBRETASTATIN A4],0.002,0.167,0.006
COc1ccc(Nc2n[nH]c3cc(OC)ccc23)cc1,> 25,> 25,24.8
COc1cc(Nc2n[nH]c3c(C)cccc23)cc(OC)c1OC,5.4,4.3,4.6
Fc1ccc2c(Nc3ccc4c(c3)OCO4)n[nH]c2c1,> 25,> 25,> 25

# — ChEMBL document CHEMBL4732043, “The discovery of novel indazole derivatives as tubulin colchicine site binding agents that displayed potent antitumor activity both in vitro and in vivo” (Eur J Med Chem, 2020)
